Reference: the supplement of paper PMC10307832

What was measured:
Test in all cases: relative viability (nuclei count vs DMSO), 5 days (fraction); higher = more cells survive
BAM7 + Bortezomib = compound: CCOC1=CC=CC=C1N=NC2=C(NN(C2=O)C3=NC(=CS3)C4=CC=CC=C4)C [BAM7] + CC(C)C[C@H](NC(=O)[C@H](Cc1ccccc1)NC(=O)c1cnccn1)B(O)O [Bortezomib] (partner 0.002 µM)
Procedure, shortened: (§1)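 Relative viability equals treated-well nuclei counts divided by vehicle-well nuclei counts. Counts came from 4× images of lung cancer cell lines grown in 1536-well plates for 5 days after pin-tool dosing on the day after seeding. Dosing used one drug alone or a fixed anchor-drug dose plus five library-drug doses (not always all listed) in √10 steps, and values are medians of duplicate plates.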

[1] = compound: CCn1c(-c2nonc2N)nc2c(C#CC(C)(C)O)ncc(OC[C@H]3CCCNC3)c21 + CC(=O)c1c(C)c2cnc(Nc3ccc(N4CCNCC4)cn3)nc2n(C2CCCC2)c1=O [Palbociclib] (partner 0.5 µM)
Procedure, shortened: as §1

[2] = compound: CCn1c(-c2nonc2N)nc2c(C#CC(C)(C)O)ncc(OC[C@H]3CCCNC3)c21 + Cc1nc(Nc2ncc(C(=O)Nc3c(C)cccc3Cl)s2)cc(N2CCN(CCO)CC2)n1 [Dasatinib] (partner 0.075 µM)
Procedure, shortened: as §1

BAM7 + Linsitinib = compound: CCOC1=CC=CC=C1N=NC2=C(NN(C2=O)C3=NC(=CS3)C4=CC=CC=C4)C [BAM7] + C[C@]1(O)C[C@@H](c2nc(-c3ccc4ccc(-c5ccccc5)nc4c3)c3c(N)nccn32)C1 [Linsitinib] (partner 1 µM)
Procedure, shortened: as §1

Question: How did the relative viability (BAM7 + Bortezomib; first compound 0.5 µM) turn out when ChaGo-K-1 was run?
Answer: The relative viability was 0.861.

Question: What about the relative viability (BAM7 + Bortezomib; first compound 5 µM) of the same cell line?
Answer: The relative viability was 1.09.

Question: What about the relative viability (BAM7 + Bortezomib; first compound 15.81 µM) of the same cell line?
Answer: Its relative viability is 1.14.

Question: What about the relative viability (BAM7 + Bortezomib; first compound 50 µM) of the same cell line?
Answer: Its relative viability is 0.969.

Question: What about the relative viability ([1]; first compound 0.01 µM) of the same cell line?
Answer: The relative viability was 0.915.

Question: What about the relative viability ([1]; first compound 0.03162 µM) of the same cell line?
Answer: Its relative viability is 0.918.

Question: What about the relative viability ([1]; first compound 0.1 µM) of the same cell line?
Answer: Its relative viability is 0.939.

Question: What about the relative viability ([1]; first compound 0.3162 µM) of the same cell line?
Answer: The relative viability was 0.893.

Question: And the relative viability ([1]; first compound 1 µM)?
Answer: The relative viability was 0.84.

Question: What about the relative viability ([2]; first compound 0.01 µM) of the same cell line?
Answer: The relative viability was 0.621.

Question: What about the relative viability ([2]; first compound 0.03162 µM) of the same cell line?
Answer: Its relative viability is 0.636.

Question: And the relative viability ([2]; first compound 0.1 µM)?
Answer: Its relative viability is 0.55.

Question: What about the relative viability ([2]; first compound 0.3162 µM) of the same cell line?
Answer: The relative viability was 0.58.

Question: What about the relative viability ([2]; first compound 1 µM) of the same cell line?
Answer: Its relative viability is 0.6.

Question: Which results are given for EBC-1?
Answer: relative viability (BAM7 + Bortezomib; first compound 0.5 µM): 0.497; relative viability (BAM7 + Bortezomib; first compound 5 µM): 0.503; relative viability (BAM7 + Bortezomib; first compound 15.81 µM): 0.531; relative viability (BAM7 + Bortezomib; first compound 50 µM): 0.574; relative viability (BAM7 + Linsitinib; first compound 0.5 µM): 0.856; relative viability (BAM7 + Linsitinib; first compound 5 µM): 1.07; relative viability (BAM7 + Linsitinib; first compound 15.81 µM): 0.876; relative viability (BAM7 + Linsitinib; first compound 50 µM): 0.85

Question: What does the source list for EKVX?
Answer: relative viability (BAM7 + Bortezomib; first compound 0.5 µM): 1.2; relative viability (BAM7 + Bortezomib; first compound 5 µM): 1.15; relative viability (BAM7 + Bortezomib; first compound 15.81 µM): 0.758; relative viability (BAM7 + Bortezomib; first compound 50 µM): 0.986; relative viability ([1]; first compound 0.01 µM): 0.411; relative viability ([1]; first compound 0.03162 µM): 0.408; relative viability ([1]; first compound 0.1 µM): 0.378; relative viability ([1]; first compound 0.3162 µM): 0.374; relative viability ([1]; first compound 1 µM): 0.419; relative viability (BAM7 + Linsitinib; first compound 0.5 µM): 1.05; relative viability (BAM7 + Linsitinib; first compound 5 µM): 1.04; relative viability (BAM7 + Linsitinib; first compound 15.81 µM): 0.729; relative viability (BAM7 + Linsitinib; first compound 50 µM): 0.831; relative viability ([2]; first compound 0.01 µM): 0.508; relative viability ([2]; first compound 0.03162 µM): 0.629; relative viability ([2]; first compound 0.1 µM): 0.533; relative viability ([2]; first compound 0.3162 µM): 0.568; relative viability ([2]; first compound 1 µM): 0.525

Question: For EMC-BAC-2, which relative viability (BAM7 + Bortezomib; first compound 0.5 µM) is on record?
Answer: The relative viability was 1.04.

Question: And the relative viability (BAM7 + Bortezomib; first compound 5 µM)?
Answer: The relative viability was 1.16.

Question: And the relative viability (BAM7 + Bortezomib; first compound 15.81 µM)?
Answer: Its relative viability is 1.11.

Question: What about the relative viability (BAM7 + Bortezomib; first compound 50 µM) of the same cell line?
Answer: The relative viability was 1.17.

Question: And the relative viability ([1]; first compound 0.01 µM)?
Answer: Its relative viability is 0.497.

Question: What about the relative viability ([1]; first compound 0.03162 µM) of the same cell line?
Answer: The relative viability was 0.506.

Question: And the relative viability ([1]; first compound 0.1 µM)?
Answer: The relative viability was 0.504.

Question: And the relative viability ([1]; first compound 0.3162 µM)?
Answer: Its relative viability is 0.5.

Question: What about the relative viability ([1]; first compound 1 µM) of the same cell line?
Answer: Its relative viability is 0.471.

Question: And the relative viability (BAM7 + Linsitinib; first compound 0.5 µM)?
Answer: Its relative viability is 0.904.

Question: And the relative viability (BAM7 + Linsitinib; first compound 5 µM)?
Answer: The relative viability was 0.838.

Question: And the relative viability (BAM7 + Linsitinib; first compound 15.81 µM)?
Answer: Its relative viability is 0.786.

Question: And the relative viability (BAM7 + Linsitinib; first compound 50 µM)?
Answer: The relative viability was 0.823.

Question: What about the relative viability ([2]; first compound 0.01 µM) of the same cell line?
Answer: Its relative viability is 0.302.

Question: And the relative viability ([2]; first compound 0.03162 µM)?
Answer: Its relative viability is 0.29.

Question: What about the relative viability ([2]; first compound 0.1 µM) of the same cell line?
Answer: The relative viability was 0.333.

Question: And the relative viability ([2]; first compound 0.3162 µM)?
Answer: The relative viability was 0.297.

Question: What about the relative viability ([2]; first compound 1 µM) of the same cell line?
Answer: The relative viability was 0.34.

Question: Which results are given for EPLC-272H?
Answer: relative viability (BAM7 + Bortezomib; first compound 0.5 µM): 0.893; relative viability (BAM7 + Bortezomib; first compound 5 µM): 0.969; relative viability (BAM7 + Bortezomib; first compound 15.81 µM): 0.827; relative viability (BAM7 + Bortezomib; first compound 50 µM): 0.942; relative viability ([1]; first compound 0.01 µM): 0.32; relative viability ([1]; first compound 0.03162 µM): 0.371; relative viability ([1]; first compound 0.1 µM): 0.297; relative viability ([1]; first compound 0.3162 µM): 0.281; relative viability ([1]; first compound 1 µM): 0.259; relative viability (BAM7 + Linsitinib; first compound 0.5 µM): 1.45; relative viability (BAM7 + Linsitinib; first compound 5 µM): 1.11; relative viability (BAM7 + Linsitinib; first compound 15.81 µM): 1.33; relative viability (BAM7 + Linsitinib; first compound 50 µM): 1.24; relative viability ([2]; first compound 0.01 µM): 0.357; relative viability ([2]; first compound 0.03162 µM): 0.413; relative viability ([2]; first compound 0.1 µM): 0.382; relative viability ([2]; first compound 0.3162 µM): 0.334; relative viability ([2]; first compound 1 µM): 0.397

Question: Which results are given for H3255?
Answer: relative viability (BAM7 + Bortezomib; first compound 0.5 µM): 0.674; relative viability (BAM7 + Bortezomib; first compound 5 µM): 0.798; relative viability (BAM7 + Bortezomib; first compound 15.81 µM): 0.7; relative viability (BAM7 + Bortezomib; first compound 50 µM): 0.624; relative viability ([1]; first compound 0.01 µM): 0.291; relative viability ([1]; first compound 0.03162 µM): 0.303; relative viability ([1]; first compound 0.1 µM): 0.345; relative viability ([1]; first compound 0.3162 µM): 0.296; relative viability ([1]; first compound 1 µM): 0.297; relative viability (BAM7 + Linsitinib; first compound 0.5 µM): 0.901; relative viability (BAM7 + Linsitinib; first compound 5 µM): 1.02; relative viability (BAM7 + Linsitinib; first compound 15.81 µM): 0.606; relative viability (BAM7 + Linsitinib; first compound 50 µM): 0.848; relative viability ([2]; first compound 0.01 µM): 0.323; relative viability ([2]; first compound 0.03162 µM): 0.412; relative viability ([2]; first compound 0.1 µM): 0.378; relative viability ([2]; first compound 0.3162 µM): 0.284; relative viability ([2]; first compound 1 µM): 0.305

Question: HARA was tested. Which relative viability (BAM7 + Bortezomib; first compound 0.5 µM) did it give?
Answer: The relative viability was 1.14.

Question: What about the relative viability (BAM7 + Bortezomib; first compound 5 µM) of the same cell line?
Answer: The relative viability was 1.26.

Question: What about the relative viability (BAM7 + Bortezomib; first compound 15.81 µM) of the same cell line?
Answer: Its relative viability is 1.09.

Question: What about the relative viability (BAM7 + Bortezomib; first compound 50 µM) of the same cell line?
Answer: The relative viability was 1.14.

Question: What about the relative viability ([1]; first compound 0.01 µM) of the same cell line?
Answer: Its relative viability is 0.303.

Question: What about the relative viability ([1]; first compound 0.03162 µM) of the same cell line?
Answer: The relative viability was 0.344.

Question: And the relative viability ([1]; first compound 0.1 µM)?
Answer: Its relative viability is 0.269.

Question: And the relative viability ([1]; first compound 0.3162 µM)?
Answer: The relative viability was 0.268.

Question: And the relative viability ([1]; first compound 1 µM)?
Answer: The relative viability was 0.209.

Question: And the relative viability (BAM7 + Linsitinib; first compound 0.5 µM)?
Answer: The relative viability was 1.08.

Question: And the relative viability (BAM7 + Linsitinib; first compound 5 µM)?
Answer: The relative viability was 1.14.

Question: And the relative viability (BAM7 + Linsitinib; first compound 15.81 µM)?
Answer: The relative viability was 0.864.

Question: What about the relative viability (BAM7 + Linsitinib; first compound 50 µM) of the same cell line?
Answer: The relative viability was 1.08.

Question: And the relative viability ([2]; first compound 0.01 µM)?
Answer: Its relative viability is 0.239.

Question: What about the relative viability ([2]; first compound 0.03162 µM) of the same cell line?
Answer: The relative viability was 0.239.

Question: And the relative viability ([2]; first compound 0.1 µM)?
Answer: The relative viability was 0.245.

Question: What about the relative viability ([2]; first compound 0.3162 µM) of the same cell line?
Answer: The relative viability was 0.218.

Question: And the relative viability ([2]; first compound 1 µM)?
Answer: Its relative viability is 0.288.

Question: For HCC-15, which relative viability (BAM7 + Bortezomib; first compound 0.5 µM) is on record?
Answer: The relative viability was 1.02.

Question: And the relative viability (BAM7 + Bortezomib; first compound 5 µM)?
Answer: Its relative viability is 1.06.

Question: What about the relative viability (BAM7 + Bortezomib; first compound 15.81 µM) of the same cell line?
Answer: The relative viability was 1.

Question: What about the relative viability (BAM7 + Bortezomib; first compound 50 µM) of the same cell line?
Answer: Its relative viability is 0.934.

Question: What about the relative viability ([1]; first compound 0.01 µM) of the same cell line?
Answer: The relative viability was 0.76.

Question: And the relative viability ([1]; first compound 0.03162 µM)?
Answer: Its relative viability is 0.71.

Question: What about the relative viability ([1]; first compound 0.1 µM) of the same cell line?
Answer: The relative viability was 0.716.

Question: What about the relative viability ([1]; first compound 0.3162 µM) of the same cell line?
Answer: The relative viability was 0.614.

Question: What about the relative viability ([1]; first compound 1 µM) of the same cell line?
Answer: The relative viability was 0.683.

Question: What about the relative viability (BAM7 + Linsitinib; first compound 0.5 µM) of the same cell line?
Answer: Its relative viability is 0.914.

Question: And the relative viability (BAM7 + Linsitinib; first compound 5 µM)?
Answer: The relative viability was 0.905.

Question: And the relative viability (BAM7 + Linsitinib; first compound 15.81 µM)?
Answer: The relative viability was 0.859.

Question: And the relative viability (BAM7 + Linsitinib; first compound 50 µM)?
Answer: The relative viability was 0.853.

Question: And the relative viability ([2]; first compound 0.01 µM)?
Answer: The relative viability was 0.57.

Question: What about the relative viability ([2]; first compound 0.03162 µM) of the same cell line?
Answer: The relative viability was 0.548.

Question: And the relative viability ([2]; first compound 0.1 µM)?
Answer: The relative viability was 0.651.

Question: What about the relative viability ([2]; first compound 0.3162 µM) of the same cell line?
Answer: The relative viability was 0.482.

Question: And the relative viability ([2]; first compound 1 µM)?
Answer: Its relative viability is 0.532.
